The test system of data set [1] is hES cell derived embryoid bodies. Kind of data set: Comparison of potential hepatocyte differentiation agents. For Induction of hepatocyte phenotype: key: +: Causes hepatocyte differentiation and selective elimination of other cell types; −: No inductive effect; ±: Mild inductive effect; may allow growth or survival of other cell types. Conditions: for Effect on hepatocyte differentiation (in words): concentration of 5 mM; for Induction of hepatocyte phenotype: EBs 4 days in suspension, replated on plates coated with collagenase 1, cultured with each compound for 6 days, analogs at 5 mM. It counts as cell-based, human. As to the method:
(§1) The effect of sodium butyrate was compared with other potential hepatocyte differentiation agents in a similar protocol. Embryoid bodies were cultured in suspension for 4 days, and then replated on plates coated with collagenase 1. The cells were then cultured in the presence of each compound for 6 days.

A further data set has as its system hES cells. Description: Phenotype of hepatocyte lineage cells made using sodium n-butyrate or Trichostatin A. It is filed as cell-based, human. Conditions: 5 mM sodium n-butyrate; 100 nM Trichostatin A. As to the method:
as §1
At 75-100 nM, Trichostatin A appeared to both induce hepatocyte differentiation and select against survival of other cell types.

Take `[Cl-].[Na+]` [NaCl]: the “Effect on hepatocyte differentiation (in words)” value in data set [1] (6 days) was “no effect”.

For `CCC(O)C(=O)O` (stereo not drawn) [α-hydroxybutyric acid], the “Induction of hepatocyte phenotype” value in data set [1] is “−”.

In the case of `CCCCC(=O)O` [Valeric acid], in data set [1], the “Induction of hepatocyte phenotype” value was “−”.

Turning to `CC(/C=C/C(=O)NO)=C\[C@@H](C)C(=O)c1ccc(N(C)C)cc1` [Trichostatin A], in the data set with hES cells, the “CK18, positive cells” value is >70%; the “CK19, positive cells” value is on record as >90%; the “Glycogen staining, positive cells” value is >50%; the “albumin, positive cells” value amounted to 41%. For the same compound, the “α1-antitrypsin, positive cells” value with hES cells came to 81%. Also, in data set [1] (EB-derived cells, 6 days), the “Concentration range found ineffective” value lay within 10 to 50 nM; the “Concentration range found to be toxic to cells” value lay within 2500 to 100000 nM; the “Concentration range that induces hepatocyte differentiation and selects against survival of other cell types” value lay within 75 to 100 nM. The “Induction of hepatocyte phenotype” value in data set [1] is “+”.

In the case of `CC(O)CC(=O)O` (stereo not drawn) [β-hydroxybutyric acid], the “Induction of hepatocyte phenotype” value in data set [1] is “−”.

As to `CCCC(=O)O` [n-Butyric Acid], the “Effect on hepatocyte differentiation (in words)” value in data set [1] (6 days) is listed as “equally effective”.

In the case of `CC(C)C(=O)O` [Isobutyric acid], the “Induction of hepatocyte phenotype” value in data set [1] is “±”. Also, the “Effect on hepatocyte differentiation (in words)” value in data set [1] (6 days) is reported as “effective in causing hepatocyte differentiation”.

Turning to `CCCCCC(=O)O` [Caproic acid], in data set [1], the “Induction of hepatocyte phenotype” value is “−”.

For the compound `CCC(=O)O` [Propionic acid], the “Effect on hepatocyte differentiation (in words)” value in data set [1] (6 days) is “effective in causing hepatocyte differentiation”.

For the origin of these results see patent publication US7256042B2, “Process for making hepatocytes from pluripotent stem cells” (Geron Corporation, priority 2000, dated 2007).
